# Measured values as given in PubChem BioAssay (NCI).
#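 Method: 48-hour compound exposure of cells in 96-well plates, five concentrations, linear interpolation of endpoints. The concentration for full growth arrest is given as TGI.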
# Columns and labels:
# Assay in all cases: DTP human tumour cell line panel, 48 h
# HOP-92 NSCLC = system: HOP-92 NSCLC
# SK-MEL-2 melanoma = system: SK-MEL-2 melanoma
# HOP-62 NSCLC = system: HOP-62 NSCLC
# PC-3 prostate = system: PC-3 prostate
# SN12C renal = system: SN12C renal
# HL-60(TB) leukemia = system: HL-60(TB) leukemia
# MDA-N = system: MDA-N
# UACC-62 melanoma = system: UACC-62 melanoma
# SW-620 colon = system: SW-620 colon
# TK-10 renal = system: TK-10 renal
smiles,measurement,setting,value
COc1cc(/C=C2\N=C(c3ccccc3)N(/N=C/c3cc4cc(C)ccc4nc3Cl)C2=O)cc(OC)c1OC,TGI,HOP-92 NSCLC,> 100 µM
same,TGI,SK-MEL-2 melanoma,48 µM
same,TGI,HOP-62 NSCLC,> 100 µM
same,TGI,PC-3 prostate,54.7 µM
same,TGI,SN12C renal,> 100 µM
same,TGI,HL-60(TB) leukemia,28.2 µM
same,TGI,MDA-N,48.6 µM
same,TGI,UACC-62 melanoma,> 100 µM
same,TGI,SW-620 colon,> 100 µM
same,TGI,TK-10 renal,> 100 µM
